# Measurements taken from ChEMBL document CHEMBL5236603, “Discovery of mobocertinib, a potent, oral inhibitor of EGFR exon 20 insertion mutations in non-small cell lung cancer” (Bioorg Med Chem Lett, 2023).
# Columns and labels:
# [1] = target: Epidermal growth factor receptor (Homo sapiens, UniProt P00533); test: Inhibition of […]-induced EGFR phosphorylation in human A549 cells pretreated for 2 hrs followed by EGF stimulation by immune assay; type: cell-based
# [2] = Inhibition of mouse EGFR D770_N771insNPG mutant stably expressed in mouse BaF3 cells assessed as cell viability incubated for 3 days by Cell Titer-Glo assay; type: cell-based; settings: BaF3, 72 h
# [3] = AUClast in CD-1 mouse at 10 mg/kg, po by LC/MS/MS analysis; type: ADME, organism-based; design: dose 10 mg/kg, route po; settings: in vivo
# [4] = AUClast in CD-1 rat at 10 mg/kg, po by LC/MS/MS analysis; type: ADME, organism-based; design: dose 10 mg/kg, route po; settings: in vivo
# [5] = Inhibition of mouse EGFR V769_D770insASV mutant stably expressed in mouse BaF3 cells assessed as cell viability incubated for 3 days by Cell Titer-Glo assay; type: cell-based; settings: BaF3, 72 h
# [6] = Cmax in CD-1 mouse at 10 mg/kg, po by LC/MS/MS analysis; type: ADME, organism-based; design: dose 10 mg/kg, route po; settings: in vivo
# [7] = Cmax in CD-1 rat at 10 mg/kg, po by LC/MS/MS analysis; type: ADME, organism-based; design: dose 10 mg/kg, route po; settings: in vivo
# [8] = system: BaF3; test: In vivo antitumor activity against mouse BaF3 cells expressing EGFR exon 20 insertion (ex20ins) ASV implanted in SCID mouse assessed as tumor growth inhibition at 100 mg/kg, po administered for 7 consecutive days; type: functional; settings: BaF3, 168 h, time 7 day, read-out: TGI
# [9] = Cmax in CD rat at 5 mg/kg, po by LC/MS/MS analysis; type: ADME, organism-based; design: dose 5 mg/kg, route po; settings: in vivo
# [10] = AUC (0 to last)in CD rat at 5 mg/kg, po by LC/MS/MS analysis; type: ADME, organism-based; design: dose 5 mg/kg, route po; settings: in vivo
# [11] = Inhibition of mouse EGFR Del-T790M double mutant stably expressed in mouse BaF3 cells assessed as cell viability incubated for 3 days by Cell Titer-Glo assay; type: cell-based; settings: BaF3, 72 h
# [12] = Inhibition of mouse EGFR delE746_A750 mutant stably expressed in mouse BaF3 cells assessed as cell viability incubated for 3 days by Cell Titer-Glo assay; type: cell-based; settings: BaF3, 72 h
# [13] = system: BaF3; test: In vivo antitumor activity against mouse BaF3 cells expressing EGFR exon 20 insertion (ex20ins) ASV implanted in SCID mouse assessed as tumor regression at 100 mg/kg, po administered for 7 consecutive days; type: functional; settings: time 7 day
# [14] = system: BaF3; test: In vivo antitumor activity against mouse BaF3 cells expressing EGFR exon 20 insertion (ex20ins) ASV implanted in SCID mouse assessed as tumor growth inhibition at 50 mg/kg, po administered for 7 consecutive days; type: functional; settings: 168 h, time 7 day, read-out: TGI
# Chain of Epidermal growth factor receptor (P00533 whole entry): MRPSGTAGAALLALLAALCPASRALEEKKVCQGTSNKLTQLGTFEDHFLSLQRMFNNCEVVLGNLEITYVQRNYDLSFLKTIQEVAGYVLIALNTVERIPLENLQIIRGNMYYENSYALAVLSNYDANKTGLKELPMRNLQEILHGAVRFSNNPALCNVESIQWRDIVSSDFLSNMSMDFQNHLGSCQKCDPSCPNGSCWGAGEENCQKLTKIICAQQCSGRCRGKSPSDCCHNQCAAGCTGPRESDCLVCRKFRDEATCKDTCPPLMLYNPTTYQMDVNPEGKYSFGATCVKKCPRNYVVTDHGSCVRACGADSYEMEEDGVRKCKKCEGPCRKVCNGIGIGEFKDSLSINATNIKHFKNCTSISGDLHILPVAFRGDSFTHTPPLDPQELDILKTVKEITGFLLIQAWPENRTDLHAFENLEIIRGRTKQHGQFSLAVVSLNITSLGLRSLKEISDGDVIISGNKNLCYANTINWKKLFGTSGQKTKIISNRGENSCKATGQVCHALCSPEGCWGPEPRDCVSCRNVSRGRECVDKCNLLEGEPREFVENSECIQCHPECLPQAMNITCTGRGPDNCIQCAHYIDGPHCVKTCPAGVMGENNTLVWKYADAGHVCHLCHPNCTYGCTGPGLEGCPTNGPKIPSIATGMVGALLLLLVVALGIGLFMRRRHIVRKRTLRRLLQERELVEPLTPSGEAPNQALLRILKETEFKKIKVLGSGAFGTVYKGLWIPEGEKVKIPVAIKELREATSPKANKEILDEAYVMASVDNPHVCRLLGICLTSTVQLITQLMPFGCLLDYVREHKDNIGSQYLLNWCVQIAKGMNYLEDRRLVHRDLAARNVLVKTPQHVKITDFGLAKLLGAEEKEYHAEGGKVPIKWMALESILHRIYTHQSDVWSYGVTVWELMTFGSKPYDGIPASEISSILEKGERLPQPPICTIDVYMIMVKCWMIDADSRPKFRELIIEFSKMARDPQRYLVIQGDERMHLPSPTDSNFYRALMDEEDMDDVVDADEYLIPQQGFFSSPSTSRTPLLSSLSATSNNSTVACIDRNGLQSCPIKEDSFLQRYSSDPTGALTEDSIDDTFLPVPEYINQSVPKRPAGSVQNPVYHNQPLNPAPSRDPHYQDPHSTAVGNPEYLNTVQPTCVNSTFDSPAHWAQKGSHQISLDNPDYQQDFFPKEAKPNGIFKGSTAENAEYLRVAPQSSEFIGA
Compound,IC50 [1] [nM],IC50 [2] [nM],AUC(0-t) [3] [ng·h/mL],AUC(0-t) [4] [ng·h/mL],IC50 [5] [nM],Cmax [6] [ng/mL],Cmax [7] [ng/mL],inhibition in vivo at 100 mg/kg [8] [%],Cmax [9] [ng/mL],AUC(0-t) [10] [ng·h/mL],IC50 [11] [nM],IC50 [12] [nM],Activity [13] [%],inhibition in vivo at 50 mg/kg [14] [%]
C=CC(=O)Nc1cc(Nc2ncc(C(=O)OCC)c(-c3cn4c5c(cccc35)CCC4)n2)c(OC)cc1N(C)CCN(C)C,32,6.43,102,1480,15,29,110,–,–,–,–,–,–,–
C=CC(=O)Nc1cc(Nc2ncc(-c3ccnn3C)c(-c3cn4c5c(cccc35)CCC4)n2)c(OC)cc1N(C)CCN(C)C,23,11,884,2950,28,218,320,–,–,–,–,–,–,–
C=CC(=O)Nc1cc(Nc2ncc(-c3cnn(C(C)C)c3)c(-c3cn4c5c(cccc35)CCC4)n2)c(OC)cc1N(C)CCN(C)C,15,13,353,2020,16,46,163,–,–,–,–,–,–,–
C=CC(=O)Nc1cc(Nc2ncc(-c3nnco3)c(-c3cn4c5c(cccc35)CCC4)n2)c(OC)cc1N(C)CCN(C)C,15,6.2,22,427,13,9,38,–,–,–,–,–,–,–
C=CC(=O)Nc1cc(Nc2ncc(C(=O)OC(C)C)c(-c3cn(C(C)=O)c4ccccc34)n2)c(OC)cc1N(C)CCN(C)C,79,3,87,38,4,42,16,–,–,–,–,–,–,–
C=CC(=O)Nc1cc(Nc2ncc(C#N)c(-c3cn4c5c(cccc35)CCC4)n2)c(OC)cc1N(C)CCN(C)C,35,3.99,200,58,9.38,29,13,76,–,–,–,–,–,–
C=CC(=O)Nc1cc(Nc2ncc(C(=O)OC(C)C)c(-c3cn(C4CC4)c4ccccc34)n2)c(OC)cc1N(C)CCN(C)C,224,23,–,–,30,–,–,–,–,–,–,–,–,–
C=CC(=O)Nc1cc(Nc2ncc(-c3cnn(C)c3)c(-c3cn4c5c(cccc35)CCC4)n2)c(OC)cc1N(C)CCN(C)C,15,–,105,–,16,59,–,–,90,853,–,–,–,–
C=CC(=O)Nc1cc(Nc2ncc(C(=O)OC(C)C)c(-c3cn4c5c(cccc35)CCC4)n2)c(OC)cc1N(C)CCN(C)C,39,6.57,–,–,12.4,–,–,–,–,–,–,–,–,–
C=CC(=O)Nc1cc(Nc2ncc(C(=O)NC)c(-c3cn4c5c(cccc35)CCC4)n2)c(OC)cc1N(C)CCN(C)C,147,37.6,–,–,136,–,–,–,–,–,–,–,–,–
C=CC(=O)Nc1cc(Nc2ncc(-c3ncco3)c(-c3cn4c5c(cccc35)CCC4)n2)c(OC)cc1N(C)CCN(C)C,45,9,234,1140,29,57,86,–,–,–,–,–,–,–
C=CC(=O)Nc1cc(Nc2ncc(C(=O)OCC(C)C)c(-c3cn(C)c4ccccc34)n2)c(OC)cc1N(C)CCN(C)C,142,14,–,–,43,–,–,–,–,–,–,–,–,–
C=CC(=O)Nc1cc(Nc2ncc(-c3nc(C)no3)c(-c3cn4c5c(cccc35)CCC4)n2)c(OC)cc1N(C)CCN(C)C,49,11,96,–,38,31,–,–,–,–,–,–,–,–
C=CC(=O)Nc1cc(Nc2ncc(Cl)c(-c3cnn4ccccc34)n2)c(OC)cc1N(C)CCN(C)C,95,32,–,–,59,–,–,–,–,–,–,–,–,–
C=CC(=O)Nc1cc(Nc2ncc(C(=O)OC3CCC3)c(-c3cn(C)c4ccccc34)n2)c(OC)cc1N(C)CCN(C)C,84,9,–,–,28,–,–,–,–,–,–,–,–,–
C=CC(=O)Nc1cc(Nc2ncc(C(=O)OC(C)C)c(-c3cn(CC)c4ccccc34)n2)c(OC)cc1N(C)CCN(C)C,24,5,631,1920,7,72,149,–,–,–,–,–,–,–

Compound,IC50 [1] [nM],IC50 [2] [nM],AUC(0-t) [3] [ng·h/mL],AUC(0-t) [4] [ng·h/mL],IC50 [5] [nM],Cmax [6] [ng/mL],Cmax [7] [ng/mL],inhibition in vivo at 100 mg/kg [8] [%],Cmax [9] [ng/mL],AUC(0-t) [10] [ng·h/mL],IC50 [11] [nM],IC50 [12] [nM],Activity [13] [%],inhibition in vivo at 50 mg/kg [14] [%]
C#Cc1cnc(Nc2cc(NC(=O)C=C)c(N(C)CCN(C)C)cc2OC)nc1-c1cn2c3c(cccc13)CCC2,42,9.8,–,–,25,–,–,–,–,–,–,–,–,–
CN(C)C/C=C/C(=O)Nc1cc2c(Nc3ccc(F)c(Cl)c3)ncnc2cc1O[C@H]1CCOC1 [AFATINIB],–,36,–,–,44,–,–,–,–,–,97,0.6,–,–
C=CC(=O)Nc1cccc(Nc2nc(Nc3ccc(N4CCN(C(C)=O)CC4)cc3OC)ncc2C(F)(F)F)c1 [ROCILETINIB],–,179,–,–,883,–,–,–,–,–,9,25,–,–
C=CC(=O)Nc1cc(Nc2ncc(C(=O)OC)c(-c3cn(C)c4ccccc34)n2)c(OC)cc1N(C)CCN(C)C,20,8,92,2300,18,31,207,–,–,–,–,–,–,–
C=CC(=O)Nc1cc(Nc2ncc(Cl)c(-c3c4n(c5ccccc35)CCOC4)n2)c(OC)cc1N(C)CCN(C)C,2970,754,–,–,1020,–,–,–,–,–,–,–,–,–
C=CC(=O)Nc1cc(Nc2ncc(C(=O)OC)c(-c3cn4c5c(cccc35)CCC4)n2)c(OC)cc1N(C)CCN(C)C,40,6.57,56,1920,22.1,20,170,–,–,–,–,–,–,–
C=CC(=O)Nc1cc(Nc2ncc(Cl)c(-c3cn4c5c(cccc35)OCC4)n2)c(OC)cc1N(C)CCN(C)C,36,15,–,–,35,–,–,–,–,–,–,–,–,–
C=CC(=O)Nc1cc(Nc2ncc(C(=O)OC(C)C)c(-c3cn(C)c4ccccc34)n2)c(OC)cc1N(C)C[C@@H]1CCCN1C,57,8,643,1390,14,145,107,–,–,–,–,–,-51,82
C=CC(=O)Nc1cc(Nc2nccc(-c3cn4c5c(cccc35)CCC4)n2)c(OC)cc1N(C)CCN(C)C,405,54,285,466,197,81,126,–,–,–,–,–,–,–
C=CC(=O)Nc1cc(Nc2nccc(-c3cn4c5c(cccc35)OCC4)n2)c(OC)cc1N(C)CCN(C)C,–,52,438,2680,137,97,207,–,–,–,–,–,–,–
C=CC(=O)Nc1cc(Nc2ncc(C(=O)OCC)c(-c3cn(C)c4ccccc34)n2)c(OC)cc1N(C)CCN(C)C,19,6,129,1540,13,45,113,–,–,–,–,–,–,–
C=CC(=O)Nc1cc(Nc2ncc(C(=O)CC)c(-c3cn4c5c(cccc35)CCC4)n2)c(OC)cc1N(C)CCN(C)C,23,4.95,–,–,17.3,–,–,–,–,–,–,–,–,–
C=CC(=O)Nc1cc(Nc2ncc(C(=O)OC(C)C)c(-c3cn(C)c4ccccc34)n2)c(OC)cc1N(C)C[C@H]1CCCN1C,43,6,294,323,12,94,40,–,–,–,–,–,-10,72
C=CC(=O)Nc1cc(Nc2nccc(-c3c4n(c5ccccc35)CCOC4)n2)c(OC)cc1N(C)CCN(C)C,288,53,655,2670,112,183,248,–,–,–,–,–,–,–
C=CC(=O)Nc1cc(Nc2nccc(-c3cn(C)c4ccccc34)n2)c(OC)cc1N(C)CCN(C)C [OSIMERTINIB],–,53,–,–,158,175,98,–,–,–,7,6,–,–
C=CC(=O)Nc1cc(Nc2ncc(Cl)c(-c3cn4c5c(cccc35)CCC4)n2)c(OC)cc1N(C)CCN(C)C,71,22,–,–,58,–,–,–,–,–,–,–,–,–
